Earlier results in patent US11877989B2, “Nutritional supplement containing L-α-glycerophosphorylcholine” (Energy Beverages LLC, priority 2020, dated 2024).

Legend:
[1] = system: subjects; conditions: in vivo
[2] = six weeks of supplementation
[3] = system: rats
[4] = system: subjects
[5] = system: amnesia caused by scopolamine; conditions: oral
[6] = system: subjects; conditions: 600 mg per day, after 6 days
[7] = system: healthy male subjects; conditions: 1000 mg ingested, 60 min after taking
[8] = in vivo and in vitro assays
[9] = single intramuscular dose
[10] = system: mice
[11] = system: beagles; conditions: up to 300 mg/kg/day
[12] = system: patients after stroke or transient ischemic attacks; conditions: 1000 mg daily for 28 days, then 400 mg three times per day for 5 months
[13] = system: rats; conditions: up to 1000 mg/kg/day
[14] = dose of 6 mg/kg

Compound: CC(C)C[C@H](NC(=O)CN(C)C(=N)N)C(=O)O [Creatyl-L-leucine, creatyl-L-leucine]
- solubility relative to creatine and L-leucine: more soluble than either creatine or L-leucine

Compound: CCNC(=O)CC[C@H](N)C(=O)O [L-theanine, N^5-ethyl-L-glutamine]
- cognitive function, including verbal fluency, versus placebo [1]: improved

Compound: C[N+](C)(C)CC(=O)[O-] [trimethylglycine]
- effects of supplementation on body composition, arm size, bench press work capacity and urinary HCTL [2]: improve body composition, arm size, and bench press work capacity, and to attenuate the rise in urinary homocysteine thiolactone (HCTL)

Compound: L-α-glycerophosphorylcholine [α-GPC]
- oral LD50 [3]: ≥ 10,000 mg/kg
- peak bench press force, greater ([4]; 600 mg): 14%
- increase of peak growth hormone levels ([4]; 600 mg single dose): 44 fold
- peak growth hormone level after supplementation ([4]; 600 mg single dose): 8.4 ± 2.1 ng/mL
- peak growth hormone level before supplementation ([4]; 600 mg single dose, starting value): 0.19 ± 0.06 ng/mL
- effect on amnesia caused by scopolamine in passive avoidance [5]: reverses amnesia
- dose of peak effect ([5]; 5 h before training): 600 mg/kg
- lower body force production [6]: increased lower body force production
- plasma growth hormone secretion versus placebo [7]: increased significantly
- mutagenic activity [8]: devoid of mutagenic activity
- return of plasma choline concentration to baseline [9]: returned to near baseline values over a six hour period
- time of peak plasma choline levels [9]: within about half an hour after the injection
- oral LD50 [10]: ≥ 10,000 mg/kg
- symptomology in sub-chronic and chronic oral toxicity studies [11]: reduced activity; slight decreases in food consumption and body weight gain; and slight reduction in liver weight
- cognitive recovery [12]: assists in the cognitive recovery
- symptomology in sub-chronic and chronic oral toxicity studies [13]: reduced activity; slight decreases in food consumption and body weight gain; and slight reduction in liver weight
- improvement of accuracy during a reaction-time test [14]: 12%
- increase of upper body power output [14]: 12%
